What was measured:
[1] = Stability in solution (water, 20 °C, 24 h); assay type: physicochemical; details: sodium salt, 24 h at 20 °C in water
Experimental: Test compounds were incubated (10 μM; < 2.5% DMSO in final concentration) in Milli Q water (n=3 tubes) at 20 °C for 24 h. (Eppendorf Thermomixer Comfort). Aliquots were collected (25 μL) just before the incubation (time “0 min”) and at 24 h. These samples were stored in a -80 °C freezer until the analysis by liquid chromatography with tandem mass spectrometry spectrometry (LC-MS/MS) – see next section for method development. Samples were thawed on wet ice on the day of assay. Thawed aliquots were mixed by vortex mixer, 10 μL of the sample transferred to a clean tube, 40 μL of ice cold acetonitrile added (containing internal standard compound), then centrifuged at 13,000 rpm for 5 min, 40 μL of clear supernatant transferred to an HPLC insert and mixed with 80 μL of 0.01% formic acid in water. Ten to 20 μL was injected onto the LC-MS/MS system. Results are based on the peak area ratio of drug to internal standard at time “0 h” (i.e. before the incubation and at the end i.e. “24 h”).

[2] = Microsome stability, rat; assay type: in vitro ADME; details: parent (as sodium salt) remaining after 30 min, rat microsomes
Experimental: (§1) Microsome stability was carried out at Cyprotex using pooled human liver microsomes (male and female), pooled rat liver microsomes (male, Sprague Dawley rats), pooled mouse liver microsomes (male CD-1 mice) which were either prepared or purchased from a reputable commercial supplier. […] The final incubation volume was 25 μL. A control incubation was included for each compound tested where 0.1 M phosphate buffer pH 7.4 was added instead of NADPH (minus NADPH). Two control compounds were included with each species. All incubations were performed singularly for each test compound. Each compound was incubated for 0, 5, 15, 30 and 45 min. The control (minus NADPH) was incubated for 45 min only. The reactions were stopped by the addition of 50 μL methanol containing internal standard at the appropriate time points. The incubation plates were centrifuged at 2,500 rpm for 20 min at 4 °C to precipitate the protein. Following precipitation, the sample supernatants were combined in cassettes of up to 4 compounds and analysed using Cyprotex generic LC-MS/MS conditions. From a plot of ln peak area ratio (compound peak area/internal standard peak area) against time, the percentage compound remaining at 30 min was calculated. Results that were > 100% of matched control were defined as 100%.

[3] = Microsome stability, mouse; assay type: in vitro ADME; details: parent (as sodium salt) remaining after 30 min, mouse microsomes
Experimental: as §1

[4] = molecular target: T1, perforin delivered by KHYG1 NK cells (Homo sapiens, UniProt P14222); assay: KHYG1 inhibitory assay: lysis of 51Cr-labelled K562 target cells by KHYG1 NK cells; assay type: cell-based; details: 51Cr-labelled K562 target cells co-incubated with KHYG1 human NK cells, vs untreated control, n = 4
T1 construct: The use of whole NK cells to deliver perforin provides a more realistic model of conditions in vivo; endogenous in cells; host or cells: KHYG1 human NK cells (effector); K562 leukemia target cells
T1 sequence (P14222 22-555): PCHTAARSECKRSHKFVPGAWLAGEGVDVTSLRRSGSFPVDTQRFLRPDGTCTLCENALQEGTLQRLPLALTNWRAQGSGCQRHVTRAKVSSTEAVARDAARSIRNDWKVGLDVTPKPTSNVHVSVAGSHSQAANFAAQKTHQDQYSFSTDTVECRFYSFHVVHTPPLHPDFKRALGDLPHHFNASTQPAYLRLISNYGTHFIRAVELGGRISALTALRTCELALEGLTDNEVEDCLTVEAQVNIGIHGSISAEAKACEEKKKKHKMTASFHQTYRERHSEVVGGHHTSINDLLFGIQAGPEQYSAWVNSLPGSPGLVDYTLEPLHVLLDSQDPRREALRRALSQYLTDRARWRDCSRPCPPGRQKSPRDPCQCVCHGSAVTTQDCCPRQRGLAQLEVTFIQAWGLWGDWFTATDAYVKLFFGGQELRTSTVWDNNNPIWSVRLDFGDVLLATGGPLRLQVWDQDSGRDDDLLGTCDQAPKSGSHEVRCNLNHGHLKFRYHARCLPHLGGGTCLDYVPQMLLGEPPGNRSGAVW
Experimental: The inhibitory function is then determined by identifying the number of untreated or inhibitor treated effector cells required to kill the same number of targets.

[5] = Toxicity to KHYG1 NK cells (Trypan blue exclusion); assay type: cell-based, human; details: human, viability of KHYG1 NK cells after 24 h, n = 3
Experimental: The toxicity assay was carried out in exactly the same manner as the killing assay above, but instead of adding the labelled K562 target cells, 100 μL of RPMI 0.1% BSA was added. Cells were incubated for 4 h at 37 °C and then washed ×3 in RPMI + 0.1% BSA. […] Trypan blue was added to each well. Viable (clear) cells and total (clear + blue) cells were counted, and the percentage of viable cells was calculated compared to DMSO treated cell control (% viability).

[6] = Solubility of the sodium salt in water; assay type: physicochemical; details: sodium salt in water at room temperature
Experimental: The compound was dissolved in water until it was no longer soluble in order to achieve a supersaturated concentration. The suspensions were sonicated for 15 min. prior to centrifugation at 13,000 revolutions per minute (rpm) for 6 minutes. Supernatants were removed and then recentrifuged prior to dilution of at least two fold in water to avoid precipitation during HPLC analysis.

[7] = In vivo plasma pharmacokinetics in mice; details: mouse plasma, 10 mg/kg i.p. in 20% hydroxypropyl-β-cyclodextrin
Experimental: The in vivo PK parameters were measured for seven compounds selected on the basis of the in vitro assessment described above. Plasma pharmacokinetics were determined in male CD-1 mice for compounds 3, 10, 11, 26, 50, 58 and 59 (Table 6). Blood samples were collected at 5–8 time-points after dosing the compounds at 10 mg/kg in a solution of 20% hydroxypropyl-β-cyclodextrin by intraperitoneal (IP) injection. For analysis of the samples, chromatographic conditions were optimised by HPLC for each compound of interest and an internal standard. A liquid chromatography with tandem mass spectrometry (LC-MS/MS) method was then developed and validated for quantitation of each analyte.
PK studies were carried out in female C57BL/6J (female) mice using IP administration of test compound, dosing at 10 mg/kg in a solution of 20% hydroxypropyl-β-cyclodextrin. Mice (n=3 at each time point) were culled with excess inhalation of CO2 and blood collected by cardiac puncture at 5-8 time points after dosing in ice cold EDTA tubes. Plasma was separated by centrifuging at 6000 rpm for 5 min and stored at -80°C until analysis by LC-MS/MS. Frozen plasma was thawed on wet ice on the day of analysis. Ten μL of sample was transferred to a clean microcentrifuge tube and mixed with ice cold acetonitrile (40 μL containing internal standard) to precipitate the plasma proteins. The tubes were centrifuged at 13000 rpm for 5 min to obtain a clear supernatant which was mixed with 0.01% formic acid-water (1:2). Ten to twenty µL was injected into the LC-MS/MS to measure the analyte concentration in the sample. The samples were quantitated against a calibration curve of known analyte concentrations run in test species blank plasma (sourced from Innovative Research, USA). The concentration vs time data was then fitted into a pharmacokinetic software program (Phoenix WinNonlin v6.2) to calculate the PK parameters including T½, Cmax and AUC0-∞.

With `CN1Cc2cc(-c3ccc(-c4cncc(NS(=O)(=O)c5ccccc5C(F)(F)F)c4)s3)ccc2C1=O` [Compound 44, N-(5-(5-(2-Methyl-1-oxoisoindolin-5-yl)thiophen-2-yl)pyridin-3-yl)-2-(trifluoromethyl)benzenesulfonamide] the “Stability in Solution (% parent remaining)” value [1] was 92%, the “Microsome Stability (%) Rat” value [2] was 49% and the “Microsome Stability (%) Mouse” value [3] was 84%. The inhibition at 10 µM [4] was 85 ± 5.6%, the viability at 24 h, 10 µM [5] was 100% and the Solubility [6] was “negative impact on solubility”. For the same compound, the solubility at 15 min [6] was 88 µg/mL.
`Cc1ccc(S(=O)(=O)Nc2ccccn2)cc1-c1ccc(-c2ccc3c(c2)CN(C)C3=O)s1` [Compound 16, Sodium (4-methyl-3-(5-(2-methyl-1-oxoisoindolin-5-yl)thiophen-2-yl)phenylsulfonyl)(pyridin-2-yl)amide] showed an inhibition at 10 µM [4] of 0% and a viability at 24 h, 10 µM [5] of 96.1 ± 6%.
`CN1Cc2cc(-c3ccc(-c4cc(NS(=O)(=O)c5ccccn5)ccc4F)s3)ccc2C1=O` [Compound 17, N-{4-Fluoro-3-[5-(2-methyl-1-oxo-2,3-dihydro-1H-isoindol-5-yl)-2-thienyl]phenyl}-2-pyridinesulfonamide] showed an inhibition at 10 µM [4] of 0% and a viability at 24 h, 10 µM [5] of 91.4 ± 6.5%.
Compound `CN1Cc2cc(-c3ccc(-c4cncc(NS(=O)(=O)c5cc(C(F)(F)F)cc(C(F)(F)F)c5)c4)s3)ccc2C1=O` [Compound 47, N-(5-(5-(2-Methyl-1-oxoisoindolin-5-yl)thiophen-2-yl)pyridin-3-yl)-3,5-bis(trifluoromethyl)benzenesulphonamide] has an inhibition at 10 µM [4] of 0%, a melting point of 299 to 302 °C and a viability at 24 h, 10 µM [5] of 90.2 ± 3.4%.
For `CN1Cc2cc(-c3ccc(-c4cncc(NS(=O)(=O)c5ccc([N+](=O)[O-])cc5)c4)s3)ccc2C1=O` [Compound 59, N-(5-(5-(2-Methyl-1-oxoisoindolin-5-yl)thiophen-2-yl)pyridin-3-yl)-4-nitrobenzenesulfonamide], the “Microsome Stability (%) Rat” value [2] was 72%, the “Microsome Stability (%) Mouse” value [3] was 85% and the inhibition at 10 µM [4] was 77.5 ± 5.6%. For the same compound, the viability at 24 h, 10 µM [5] was 85 ± 12%, the “AUC0-∞” value [7] was 383 µM·h and the Cmax [7] was 64 µM. The T1/2 [7] was 2.2 h and the solubility at 15 min [6] was 1680 µg/mL.
In the case of `CN1Cc2cc(-c3ccc(-c4cncc(NS(=O)(=O)c5ccc(C#N)cc5)c4)s3)ccc2C1=O` [Compound 50, 4-Cyano-N-(5-(5-(2-methyl-1-oxoisoindolin-5-yl)thiophen-2-yl)pyridin-3-yl)benzenesulfonamide], the “Stability in Solution (% parent remaining)” value [1] is reported as 85%, the “Microsome Stability (%) Rat” value [2] is reported as 64% and the “Microsome Stability (%) Mouse” value [3] is reported as 87%. The inhibition at 10 µM [4] was 75 ± 7.8%, the viability at 24 h, 10 µM [5] was 99.3 ± 0.3% and the “AUC0-∞” value [7] was 642 µM·h. For the same compound, the Cmax [7] was 87 µM, the T1/2 [7] was 3.3 h and the Solubility [6] was “highly soluble”. The solubility at 15 min [6] was 12900 µg/mL.
With `CN1Cc2cc(-c3ccc(-c4cncc(NS(=O)(=O)c5cccc(C(F)(F)F)c5)c4)s3)ccc2C1=O` [Compound 45, N-(5-(5-(2-Methyl-1-oxoisoindolin-5-yl)thiophen-2-yl)pyridin-3-yl)-3-(trifluoromethyl)benzenesulfonamides] the “Microsome Stability (%) Rat” value [2] was 80%, the “Microsome Stability (%) Mouse” value [3] was 97% and the inhibition at 10 µM [4] was 88.8 ± 1.9%. The viability at 24 h, 10 µM [5] was 100%, the Solubility [6] was “negative impact on solubility” and the solubility at 15 min [6] was 574 µg/mL.
Compound `CN1Cc2cc(-c3ccc(-c4cncc(NS(=O)(=O)c5ccc(S(C)(=O)=O)cc5)c4)s3)ccc2C1=O` [Compound 57, Sodium (5-(5-(2-methyl-1-oxoisoindolin-5-yl)thiophen-2-yl)pyridin-3-yl)((4-(methylsulfonyl)phenyl)sulfonyl)amide] has an inhibition at 10 µM [4] of 0% and a viability at 24 h, 10 µM [5] of 90 ± 7.8%.
For `CN1Cc2cc(-c3ccc(-c4cncc(NS(=O)(=O)c5c(F)cc(F)cc5F)c4)s3)ccc2C1=O` [Compound 26, 2,4,6-Trifluoro-N-(5-(5-(2-methyl-1-oxoisoindolin-5-yl)thiophen-2-yl)pyridin-3-yl)benzenesulfonamide], the “Stability in Solution (% parent remaining)” value [1] was 88%, the “Microsome Stability (%) Rat” value [2] was 83% and the “Microsome Stability (%) Mouse” value [3] was 100%. The inhibition at 10 µM [4] was 81.3 ± 6.3%, the viability at 24 h, 10 µM [5] was 95.1 ± 2.1% and the “AUC0-∞” value [7] was 1019 µM·h. For the same compound, the Cmax [7] was 124 µM, the T1/2 [7] was 4.5 h and the Solubility [6] was “highly soluble”. For the same compound, the solubility at 15 min [6] was 10700 µg/mL.
With `CN1Cc2cc(-c3ccc(-c4cnc(F)c(NS(=O)(=O)c5ccccn5)c4)s3)ccc2C1=O` [Compound 20, N-(2-Fluoro-5-(5-(2-methyl-1-oxoisoindolin-5-yl)thiophen-2-yl)pyridin-3-yl)pyridine-2-sulfonamide] the Solubility [6] was “significantly improved”.

— publication PMC5500991, “Substituted arylsulphonamides as inhibitors of perforin-mediated lysis” (European Journal of Medicinal Chemistry, 2017)
